One assay concerns IL-1α. Nature of the assay: IL-1α expression analysis (ELISA) under H2O2. The conditions noted are these: HaCaT, 20 µM H2O2, 50 µg/mL to 200 µg/mL, 24 hours; suppression increased as content increased; Fig. 10. It counts as cell-based, Human. How it is done:
Human normal epidermal keratinocytes (HaCaT) were cultured in DMEM containing 10% FBS. The cultured cells were collected by trypsin treatment. The collected cells were seeded in a 48-well plate at a cell density of 6 x 10^4 cells/well and cultured for 24 hours in a 37°C, 5% CO2 incubator. After culturing, the cells were precultured for 2 hours in FBS-free DMEM containing the test sample (2'-FL and sucrose) at 50 µg/mL, 100 µg/mL, or 200 µg/mL, or in FBS-free DMEM not containing the test sample. Thereafter, the medium was replaced with FBS-free DMEM containing the test sample at 50 µg/mL, 100 µg/mL, or 200 µg/mL and 20 µM H2O2, or with FBS-free DMEM not containing the test sample but containing 20 µM H2O2, respectively, and after culturing for an additional 24 hours in a 37°C, 5% CO2 incubator, the culture supernatant was collected. The culture supernatant was centrifuged, and the resulting supernatant was used as a sample. […]
Since most IL-1α is released extracellularly, the IL-1α expression level was evaluated by measuring IL-1α in the supernatant medium by ELISA (AuthentiKine™ IL-1 alpha ELISA Kit, manufactured by Proteintech). […] The relative value of the IL-1α amount when each test sample was added was calculated, with the IL-1α amount in the control set to 1.
(In general: ELISA stands for enzyme-linked immunosorbent assay.)

For another assay, the system named is GLS1. Nature of the assay: GLS1 expression analysis (ELISA) in BV2. Type of assay: cell-based. The conditions noted are these: mouse microglial cells (BV2), at least 200 µg/mL or more, 24 hours; effect increased from 200 to 1000 µg/mL; Fig. 12. The method, then:
Mouse microglial cells (BV2) were cultured in glutamine-containing DMEM. The cultured cells were collected by trypsin treatment. The collected cells were seeded in a 6-well plate at a cell density of 4 x 10^5 cells/well and cultured for 24 hours in a 37°C, 5% CO2 incubator. After culturing, glutamine-free DMEM containing the test sample (2'-FL and lactose) at 50 µg/mL, 200 µg/mL, or 1000 µg/mL was added, and cultured for 24 hours in a 37°C, 5% CO2 incubator. The culture supernatant was removed, the cells were washed twice with PBS, and 0.20 mL of RIPA buffer was added to extract total protein. Protein in each protein extract was quantified by the Bradford assay.
Protein extracts were collected in the same manner as in [Example 10-1 B. Human gastric undifferentiated carcinoma cells (KKLS)], [Example 10-1 C. Mouse microglial cells (BV2)], [Example 10-1 D. Human gingival fibroblasts (Gin-1)], and [Example 10-1 E. Human umbilical vein endothelial cells (HUVEC)], respectively, except that a medium same as the above-mentioned medium but not containing the test sample was used instead of the medium containing the test sample, and protein in each protein extract was quantified by the Bradford assay.
An ELISA method was performed using an antibody against GLS1 to measure the amount of GLS1 in the samples. […]

For another assay, the system named is laminin. In words: Laminin secretion amount (ELISA) of tunicamycin-treated dermal fibroblasts. It counts as cell-based, Human. Conditions: NB1RGB PDL of 30 or less, tunicamycin 0.3 µg/mL, 50 µg/mL to 200 µg/mL, 24 hours; recovery increased as content increased; Fig. 8. How it is done:
Human normal dermal fibroblasts (NB1RGB) with a PDL of 30 or less were cultured using DMEM containing 10% FBS. The cultured cells were collected by trypsin treatment. The collected cells were seeded in a 24-well plate, and when they reached 100% confluence, tunicamycin at 0.3 µg/mL was added, and the culture supernatant was collected after 24 hours. A group was also prepared in which FBS-free DMEM medium containing the test sample (2'-fucosyllactose) at 50 µg/mL, 100 µg/mL, or 200 µg/mL was added simultaneously with tunicamycin, and the culture supernatant was collected after 24 hours. The culture supernatant was centrifuged, and the resulting supernatant was used as a sample. […] This total cell protein concentration was measured by the Bradford assay.
Human normal dermal fibroblasts with a PDL of 30 or less were cultured in the same manner as in Example 7-1, except that tunicamycin and the test sample were not added, and the culture supernatant was collected. […] This total cell protein concentration was measured by the Bradford assay.
An Enzyme-Linked Immunosorbent Assay (ELISA) method was performed using an antibody against laminin to measure the amount of laminin in the samples. […] After stopping the reaction, the absorbance at a measurement wavelength of 450 nm was measured using a microplate reader. […]

Here are results for one compound from patent EP4670722A1, “PROPHYLACTIC OR AMELIORATING AGENT FOR CELL AGING” (Kyowa Pharma Chemical Co., Ltd., priority 2023, dated 2024).

Regarding `C[C@@H]1O[C@@H](O[C@H]2[C@H](O[C@H]3[C@H](O)[C@@H](O)C(O)O[C@@H]3CO)O[C@H](CO)[C@H](O)[C@@H]2O)[C@@H](O)[C@H](O)[C@@H]1O` (stereo partly drawn) [2'-FL, 2'-fucosyllactose], the “H2O2-induced promotion of IL-1α expression” value in the assay with IL-1α was “suppressed the H2O2-induced promotion of IL-1 α expression”. For the same compound, the GLS1 expression entry with GLS1 was “suppressed GLS1 expression”. In addition, in the assay with laminin, the laminin secretion entry is “restored laminin secretion”.
